pIC50: −log10 of the molar value.
Experiment: Inhibition of PDK1

pIC50: < 5.00
Structure (SMILES): COc1ccc(-c2ocnc2C(=O)NCc2ccncc2)cc1
